According to PubChem BioAssay AID1963863 (Molecular Pharmacology Branch, DTP, NCI, 2024):

Tested on: 931267-113-T-J1-PDC KRAS spheroid with HUVEC/MSC, viability
Assay: Anticancer human tumor 931267-113-T-J1-PDC patient-derived colon adenocarcinoma cell line growth inhibition [KRAS2]
Conditions: for IC50: curve of first compound; for viability, T/C: stronger effect = lower value
Summary of the method: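 Combination screen of spheroid viability in tumor-cell co-cultures with endothelial (HUVEC) and mesenchymal stem cell stroma. Each agent was tested in half-log dilutions, topping at clinical Cmax or at 10 microM without a known Cmax.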

[1] = second compound 0.1 µM, first compound 0.0316 µM
[2] = second compound 0.1 µM, first compound 0.1 µM
[3] = second compound 0.316 µM, first compound 0.0316 µM
[4] = second compound 0.316 µM, first compound 0.1 µM
[5] = second compound 1 µM, first compound 0.0316 µM
[6] = second compound 1 µM, first compound 0.1 µM
[7] = second compound 3.16 µM, first compound 0.0316 µM
[8] = second compound 3.16 µM, first compound 0.1 µM
[9] = second compound 10 µM, first compound 0.0316 µM
[10] = second compound 10 µM, first compound 0.1 µM
[11] = second compound 0.1 µM, first compound 0.316 µM
[12] = second compound 0.1 µM, first compound 1 µM
[13] = second compound 0.1 µM, first compound 3.16 µM
[14] = second compound 0.1 µM, first compound 10 µM
[15] = second compound 0.316 µM, first compound 0.316 µM
[16] = second compound 0.316 µM, first compound 1 µM
[17] = second compound 0.316 µM, first compound 3.16 µM
[18] = second compound 0.316 µM, first compound 10 µM
[19] = second compound 1 µM, first compound 0.316 µM
[20] = second compound 1 µM, first compound 1 µM
[21] = second compound 1 µM, first compound 3.16 µM
[22] = second compound 1 µM, first compound 10 µM
[23] = second compound 3.16 µM, first compound 0.316 µM
[24] = second compound 3.16 µM, first compound 1 µM
[25] = second compound 3.16 µM, first compound 3.16 µM
[26] = second compound 3.16 µM, first compound 10 µM
[27] = second compound 10 µM, first compound 0.316 µM
[28] = second compound 10 µM, first compound 1 µM
[29] = second compound 10 µM, first compound 3.16 µM
[30] = second compound 10 µM, first compound 10 µM
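Note: compound exposure lasted 7 days before the readout.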
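Throughout, for viability, T/C: 100% = DMSO vehicle control viability.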

SMILES	IC50 (second compound 0.1 µM) [nM]	IC50 (second compound 0.316 µM) [nM]	IC50 (second compound 1 µM) [nM]	IC50 (second compound 3.16 µM) [nM]	IC50 (second compound 10 µM) [nM]	viability, T/C [1] [%]	viability, T/C [2] [%]	viability, T/C [3] [%]	viability, T/C [4] [%]	viability, T/C [5] [%]	viability, T/C [6] [%]	viability, T/C [7] [%]	viability, T/C [8] [%]	viability, T/C [9] [%]	viability, T/C [10] [%]	viability, T/C [11] [%]	viability, T/C [12] [%]	viability, T/C [13] [%]	viability, T/C [14] [%]	viability, T/C [15] [%]	also measured
CC(C)n1nc(-c2ccc3oc(N)nc3c2)c2c(N)ncnc21 + COc1cc2nc(C)nc(NC(C)c3cc(N)cc(C(F)(F)F)c3)c2cc1OC1CCOC1	9.26	7.45	9.33	6.56	< 0.316	31.1	24.9	28.1	24.2	30.9	23.9	28.6	23.6	2.74	1.79						viability, T/C (second compound 0.1 µM, first compound 0.000316 µM): 109%; viability, T/C (second compound 0.1 µM, first compound 0.001 µM): 92.5%; viability, T/C (second compound 0.1 µM, first compound 0.00316 µM): 69%; viability, T/C (second compound 0.1 µM, first compound 0.01 µM): 50.5%; viability, T/C (second compound 0.316 µM, first compound 0.000316 µM): 108%; viability, T/C (second compound 0.316 µM, first compound 0.001 µM): 91.7%; viability, T/C (second compound 0.316 µM, first compound 0.00316 µM): 77.3%; viability, T/C (second compound 0.316 µM, first compound 0.01 µM): 39.1%; viability, T/C (second compound 1 µM, first compound 0.000316 µM): 84.5%; viability, T/C (second compound 1 µM, first compound 0.001 µM): 101%; viability, T/C (second compound 1 µM, first compound 0.00316 µM): 65.9%; viability, T/C (second compound 1 µM, first compound 0.01 µM): 51.7%; viability, T/C (second compound 3.16 µM, first compound 0.000316 µM): 79%; viability, T/C (second compound 3.16 µM, first compound 0.001 µM): 75.8%; viability, T/C (second compound 3.16 µM, first compound 0.00316 µM): 63.7%; viability, T/C (second compound 3.16 µM, first compound 0.01 µM): 41.9%; viability, T/C (second compound 10 µM, first compound 0.000316 µM): 1.37%; viability, T/C (second compound 10 µM, first compound 0.001 µM): 1.1%; viability, T/C (second compound 10 µM, first compound 0.00316 µM): 6.43%; viability, T/C (second compound 10 µM, first compound 0.01 µM): 3.9%
CC1(C)CCC(CN2CCN(c3ccc(C(=O)NS(=O)(=O)c4ccc(NCC5CCOCC5)c([N+](=O)[O-])c4)c(Oc4cnc5[nH]ccc5c4)c3)CC2)=C(c2ccc(Cl)cc2)C1 + COc1cc2nc(C)nc(NC(C)c3cc(N)cc(C(F)(F)F)c3)c2cc1OC1CCOC1	2100	1950	1820	1650	< 31.6	89	88.1	86.2	90.3	76.5	93.4	61.9	86.5	0.9	2.22	90.1	95.8	27.7	8.52	84	viability, T/C [16]: 83%; viability, T/C [17]: 26.3%; viability, T/C [18]: 5.92%; viability, T/C [19]: 76.1%; viability, T/C [20]: 84.9%; viability, T/C [21]: 19.6%; viability, T/C [22]: 2.71%; viability, T/C [23]: 60.2%; viability, T/C [24]: 69.8%; viability, T/C [25]: 24.3%; viability, T/C [26]: 4.36%; viability, T/C [27]: 0.8%; viability, T/C [28]: 1.14%; viability, T/C [29]: 2.02%; viability, T/C [30]: 0.84%
COc1cc(Nc2ncc3c(n2)-c2ccc(Cl)cc2C(c2c(F)cccc2OC)=NC3)ccc1C(=O)O + COc1cc2nc(C)nc(NC(C)c3cc(N)cc(C(F)(F)F)c3)c2cc1OC1CCOC1	> 10000	> 10000	> 10000	> 10000	53.9	102	85.6	86.5	93.5	85.6	79.8	90	91	75.5	7.27	80.7	79.5	87.8	57	75.3	viability, T/C [16]: 72.4%; viability, T/C [17]: 57.9%; viability, T/C [18]: 54.3%; viability, T/C [19]: 86.3%; viability, T/C [20]: 78.7%; viability, T/C [21]: 66.5%; viability, T/C [22]: 58.9%; viability, T/C [23]: 82.9%; viability, T/C [24]: 83.1%; viability, T/C [25]: 79%; viability, T/C [26]: 49.6%; viability, T/C [27]: 13.8%; viability, T/C [28]: 12.1%; viability, T/C [29]: 64.3%; viability, T/C [30]: 4.17%
COc1cc2nccc(Oc3ccc(NC(=O)C4(C(=O)Nc5ccc(F)cc5)CC4)cc3)c2cc1OC + COc1cc2nc(C)nc(NC(C)c3cc(N)cc(C(F)(F)F)c3)c2cc1OC1CCOC1	7320	4890	2840	747	< 31.6	105	112	111	102	94.6	107	74	87	1.73	0.3	98.2	93	63.8	44.8	83.1	viability, T/C [16]: 90.9%; viability, T/C [17]: 51.1%; viability, T/C [18]: 37.2%; viability, T/C [19]: 90.6%; viability, T/C [20]: 91.5%; viability, T/C [21]: 45.6%; viability, T/C [22]: 28.5%; viability, T/C [23]: 74.7%; viability, T/C [24]: 41.4%; viability, T/C [25]: 4.72%; viability, T/C [26]: 0.2%; viability, T/C [27]: 0.4%; viability, T/C [28]: 1.03%; viability, T/C [29]: 0.15%; viability, T/C [30]: 0.23%
